The source of these data is article PMC6269736, “Antimalarial Activity of 4-Metoxychalcones: Docking Studies as Falcipain/Plasmepsin Inhibitors, ADMET and Lipophilic Efficiency Analysis to Identify a Putative Oral Lead Candidate” (Molecules, 2013).

Structures are written as SMILES. Like-named read-outs stand apart in the source and are kept apart here.

Data set [1] has as its system P. falciparum clone W2 (chloroquine-resistant). The data set is described as follows: In vitro antiplasmodial activity, Giemsa-stained smear parasitaemia after 48 h. In kind it is cell-based, Plasmodium falciparum. The following applies: for IC50: Plasmodium falciparum; for SI (selectivity index): SI = LC50 HeLa/IC50 Plasmodium falciparum. Here is the method: The human red blood cells and plasma were ceded by the Fundação Hemominas-Hemonúcleo Divinópolis. The synchronization of the parasites was achieved by sorbitol treatment and parasitaemia was determined microscopically in Giemsa-stained smears.
Briefly, ring-stage parasites in sorbitol-synchronized blood cultures were added to 96-well culture plates with 2% parasitaemia and 2% haematocrit and then incubated with the test compounds. The compounds were diluted in complete media, from 10 mg/mL stock solutions in DMSO, at various concentrations (0.1–30 µM). After 48 h incubation, Giemsa-stained blood smears were taken for microscopic evaluation of parasitaemia. All experiments were performed in triplicate.

The next data set can be described thus: in vitro. In kind it is cell-based. To be noted: human. Here is the method: The cytotoxicity of the compounds was assessed with the HeLa human cell line (cervix adenocarcinoma ATCC# CCl-2) using the MTT (3-(4,5-dimethylthiazol-2-yl)-2,5-diphenyltetrazolium bromide) (Sigma, St. Louis, MO, USA) colorimetric method. Briefly, the cells were plated in 96-well plates (1 × 10^5 cells/well) and incubated for 24 h at 37 °C in a humidified atmosphere with 5% CO2. After 24 h, the wells were washed with culture medium (RPMI + 10% inactivated fetal calf serum + 2 mM L-glutamine) and incubated with the compounds at various concentrations (0.05 to 500 µM). After 48 h incubation, the plates were treated with MTT. The colorimetric reading was performed in a microplate reader Spectramax M5e (Molecular Devices, Sunnyvale, CA, USA) at 550 nm. Cytotoxicity was scored as the percentage reduction in absorbance versus untreated control cultures. All experiments were performed in triplicate. […] The IC50 and LC50 values were calculated using OriginPro8.0 (OriginLab Corporation, Northampton, MA, USA) software. A selectivity index (SI), corresponding to the ratio between the cytotoxic and antiparasitic activities of each compound, was calculated as follows: SI = LC50 HeLa/IC50 Plasmodium falciparum

[2] abbreviates: P. falciparum W2, 48 h incubation, triplicate, mean ± spread, read-out: IC50, in vitro antiplasmodial activity.
Setting [3] is: P. falciparum W2, from IC50, read-out: pIC50 (converted).

With `CCN(CC)CCCC(C)Nc1ccnc2cc(Cl)ccc12` (centres unmarked) [CQ, chloroquine, reference compound], the IC50 in data set [1] (W2, 48 h, read-out: IC50, in vitro antiplasmodial activity) is 0.45 ± 0.04 µM; in data set [1] (W2, read-out: pIC50 (converted)) it was 0.454 µM.
For the molecule `COc1ccc(/C=C/C(=O)c2ccccc2)cc1S(=O)(=O)N1CCOCC1` [Compound 1a], the results for the IC50 in data set [1] (setting [2]) and in data set [1] (setting [3]) were 2.06 ± 0.05 µM and 2.07 µM, respectively. In addition, in data set [1], the “SI (selectivity index)” value was 9.0. The 50% cytotoxic concentration (CC50) (commonly the concentration that lowers cell viability or growth by half) at 48 h in “in vitro” stood at 18.6 ± 1.26 µM.
As to `COc1ccc(/C=C/C(=O)c2ccccc2)cc1S(=O)(=O)N(C)C` [Compound 1b], the IC50 in data set [1] (setting [2]) is 5.79 ± 0.12 µM; in data set [1] (setting [3]) it was 5.79 µM. In addition, the “SI (selectivity index)” value in data set [1] amounted to 3.6. In the data set “in vitro”, this molecule registered a cytotoxic concentration (CC50) at 48 h of 20.7 ± 1.62 µM.
For `COc1ccc(/C=C/C(=O)c2ccccc2)cc1S(=O)(=O)Nc1ccccc1` [Compound 1c] the same measures were 2.03 ± 0.28 µM, 2.03 µM, 5.7 and 11.5 ± 0.23 µM.
For `COc1ccc(NS(=O)(=O)c2cc(/C=C/C(=O)c3ccccc3)ccc2OC)cc1` [Compound 1d] the same measures were 3.64 ± 0.4 µM, 3.64 µM, 3.0 and 11.1 ± 1.96 µM.
For `COc1ccc(/C=C/C(=O)c2ccccc2)cc1S(=O)(=O)Nc1ccc(Cl)cc1` [Compound 1e] the same measures were 2.83 ± 0.21 µM, 2.82 µM, 3.7 and 10.5 ± 2.27 µM.
In the case of `COc1ccc(/C=C/C(=O)c2ccccc2)cc1S(=O)(=O)Nc1ccc(Cl)c(Cl)c1` [Compound 1f], the IC50 in data set [1] (setting [2]) is 4.33 ± 0.06 µM; in data set [1] (setting [3]) it was 4.33 µM. Moreover, in data set [1], the “SI (selectivity index)” value was 4.4. Moreover, in the data set “in vitro”, it took 19 ± 0.43 µM to reach half-maximal cytotoxicity (CC50 at 48 h).
Regarding `CCN(CC)S(=O)(=O)c1cc(/C=C/C(=O)c2ccccc2)ccc1OC` [Compound 1g], the IC50 in data set [1] (setting [2]) is 11 ± 0.57 µM; in data set [1] (setting [3]), 11 µM. Besides, the “SI (selectivity index)” value in data set [1] was determined as 1.9. In “in vitro”, this molecule gave a CC50 at 48 h of 20.7 ± 1.6 µM.
As for `COc1ccc(/C=C/C(=O)c2ccccc2)cc1S(=O)(=O)NCc1ccccc1` [Compound 1h], the IC50 in data set [1] (setting [2]) was 1.96 ± 0.02 µM; in data set [1] (setting [3]) it was 1.96 µM. Further, in data set [1], the “SI (selectivity index)” value worked out at 4.8. This molecule also displayed a cytotoxic concentration (CC50) at 48 h in “in vitro” of 9.42 ± 2.09 µM.
The matching figures for `COc1ccc(/C=C/C(=O)c2ccccc2)cc1S(=O)(=O)N1CCCC1` [Compound 1i]: 2.07 ± 0.22 µM, 2.07 µM, 4.4 and 9.18 ± 1.51 µM.
